In brackets after ≈: the same amount, converted by molar mass. Read-outs that look alike come from different tables or passages of the source. Marks after values point to notes of the source that are not given here.
Experiments:
H. pylori strain 26695 = test: MIC determination, liquid microdilution, H. pylori; assay type: cell-based; details: Helicobacter pylori, 26695, 27 h, read-out: MIC H. pylori
C. jejuni strain H840 = test: MIC determination, liquid microdilution, C. jejuni; assay type: cell-based; details: Campylobacter jejuni, H840, 27 h, read-out: MIC C. jejuni
C. difficile VPI 10463 = test: MIC determination, agar dilution, C. difficile; assay type: cell-based, Clostridium difficile; details: Clostridioides difficile, VPI10463, 18 h, read-out: MIC C. difficile
H. pylori PFOR enzyme = test: Direct PFOR enzyme assay; assay type: biochemical; details: [Drug] = 40 μM
[1] = Human foreskin cell toxicity; assay type: cell-based; details: human
S. epidermidis = test: MIC determination, liquid microdilution, S. epidermidis; assay type: cell-based; details: Staphylococcus epidermidis, read-out: MIC S. epidermidis
Human foreskin cells = test: Human foreskin cell toxicity; assay type: cell-based
S. aureus (MRSA) = test: MIC determination, liquid microdilution, S. aureus; assay type: cell-based; details: Staphylococcus aureus, read-out: MIC S. aureus (MRSA)
E. coli = test: MIC against E. coli; assay type: cell-based; details: Escherichia coli

SMILES | MIC (H. pylori strain 26695) | MIC (C. jejuni strain H840) | MIC (C. difficile VPI 10463) | PFOR Inhibition (H. pylori PFOR enzyme) | CC50 at 48 h ([1]; human foreskin cells) | MIC (S. epidermidis) | toxicity to human foreskin cells (in words) (Human foreskin cells) | MIC (S. aureus (MRSA)) | CC50 at 48 h [1] | PFOR Inhibition (H. pylori PFOR enzyme; listed as 1, 40 µM) | PFOR Inhibition (H. pylori PFOR enzyme; listed as NTZ, 40 µM) | MIC (E. coli; read-out: E. coli MIC) | MIC (E. coli; read-out: E. coli MIC, stated in text)
O=C(Nc1ncc([N+](=O)[O-])s1)c1ccc(F)cc1 [Analogue 8, 4-Fluoro-N-(5-nitrothiazol-2-yl)benzamide] | 0.9 µM (≈ 0.241 µg/mL) | 2.8 µM (≈ 0.748 µg/mL) | 3.3 µM (≈ 0.882 µg/mL) | 85 ^b % | 29.9 µM | – | – | – | – | – | – | – | –
O=C(Nc1ncc([N+](=O)[O-])s1)c1cccc(C(F)(F)F)c1 [Analogue 23, N-(5-Nitrothiazol-2-yl)-3-(trifluoromethyl)benzamide] | 3.5 µM (≈ 1.11 µg/mL) | 4.7 µM (≈ 1.49 µg/mL) | 0.5 µM (≈ 0.159 µg/mL) | 41.5 ± 5.5% | > 50.4 µM | 12.6 µM (≈ 4 µg/mL) | not toxic | – | – | – | – | – | –
O=C(Nc1ncc([N+](=O)[O-])s1)c1cccc([N+](=O)[O-])c1 [Analogue 26, 3-Nitro-N-(5-nitrothiazol-2-yl)benzamide] | 1.3 µM (≈ 0.383 µg/mL) | 27.2 µM (≈ 8 µg/mL) | – | – | – | 10.2 µM (≈ 3 µg/mL) | – | 10.2 µM (≈ 3 µg/mL) | 27.2 µM | – | – | – | –
O=C(Nc1ncc([N+](=O)[O-])s1)c1cccc(OC(F)(F)F)c1 [Analogue 31, N-(5-Nitrothiazol-2-yl)-3-(trifluoromethoxy)benzamide] | 1.1 µM (≈ 0.367 µg/mL) | 9 µM (≈ 3 µg/mL) | – | – | > 48 µM | 12 µM (≈ 4 µg/mL) | – | 6 µM (≈ 2 µg/mL) | – | – | – | – | –
O=C(Nc1ncc([N+](=O)[O-])s1)c1cc(C(F)(F)F)cc(C(F)(F)F)c1 [Analogue 38, N-(5-Nitrothiazol-2-yl)-3,5-bis(trifluoromethyl)benzamide] | 5.2 µM (≈ 2 µg/mL) | 41.5 µM (≈ 16 µg/mL) | – | – | 10.4 µM | 1.9 µM (≈ 0.732 µg/mL) | particularly toxic | 2.6 µM (≈ 1 µg/mL) | – | – | – | – | –
O=C(Nc1ncc([N+](=O)[O-])s1)c1cccc(C(F)(F)F)c1Cl [Analogue 40, 2-Chloro-N-(5-nitrothiazol-2-yl)-3-(trifluoromethyl)benzamide] | 0.9 µM (≈ 0.317 µg/mL) | – | – | – | > 45.5 µM | 11.4 µM (≈ 4.01 µg/mL) | – | 11.4 µM (≈ 4.01 µg/mL) | – | – | – | – | –
O=C(Nc1ncc([N+](=O)[O-])s1)c1ccc(Cl)c(C(F)(F)F)c1 [Analogue 41, 4-Chloro-N-(5-nitrothiazol-2-yl)-3-(trifluoromethyl)benzamide] | 2.8 µM (≈ 0.985 µg/mL) | 2.8 µM (≈ 0.985 µg/mL) | 1.4 µM (≈ 0.492 µg/mL) | 33 ± 1% | > 45.5 µM | 2.8 µM (≈ 0.985 µg/mL) | – | 2.8 µM (≈ 0.985 µg/mL) | – | – | – | – | –
CC(=O)Nc1ncc([N+](=O)[O-])s1 [Analogue 48, N-(5-Nitrothiazol-2-yl)acetamide] | 0.7 µM (≈ 0.131 µg/mL) | 10.7 µM (≈ 2 µg/mL) | – | – | > 85.5 µM | 21.4 µM (≈ 4.01 µg/mL) | – | 171 µM (≈ 32 µg/mL) | – | – | – | – | –
CCCCCC(=O)Nc1ncc([N+](=O)[O-])s1 [Analogue 50, N-(5-Nitrothiazol-2-yl)hexanamide] | 0.5 µM (≈ 0.122 µg/mL) | 2.1 µM (≈ 0.511 µg/mL) | 8.2 µM (≈ 1.99 µg/mL) | 64 ± 6 ^b % | > 65.8 µM | – | – | 132 µM (≈ 32 µg/mL) | – | – | – | – | –
O=C(Nc1ncc([N+](=O)[O-])s1)c1cccnc1F [Analogue 59, 2-Fluoro-N-(5-nitrothiazol-2-yl)nicotinamide] | – | – | 2.8 µM (≈ 0.751 µg/mL) | 61 ± 13% | > 59.7 µM | 119 µM (≈ 32 µg/mL) | – | 119 µM (≈ 32 µg/mL) | – | – | – | – | –
O=C(Nc1ncc([N+](=O)[O-])s1)c1ccoc1 [Analogue 60, N-(5-Nitrothiazol-2-yl)furan-3-carboxamide] | – | – | 1.7 µM (≈ 0.407 µg/mL) | 58 ± 2 ^b % | > 66.9 µM | 33.4 µM (≈ 7.99 µg/mL) | – | – | – | – | – | – | –
O=C(Nc1ncc([N+](=O)[O-])s1)c1ccco1 [Analogue 61, N-(5-Nitrothiazol-2-yl)furan-2-carboxamide] | 1 µM (≈ 0.239 µg/mL) | 8.4 µM (≈ 2.01 µg/mL) | 2.4 µM (≈ 0.574 µg/mL) | 42 ^b % | 66.9 µM | 66.9 µM (≈ 16 µg/mL) | – | 50.2 µM (≈ 12 µg/mL) | – | – | – | – | –
O=C(Nc1ncc([N+](=O)[O-])s1)c1ccc([N+](=O)[O-])o1 [Analogue 64, 5-Nitro-N-(5-nitrothiazol-2-yl)furan-2-carboxamide] | 21.1 µM (≈ 6 µg/mL) | 7 µM (≈ 1.99 µg/mL) | – | – | > 56.3 µM | 28.1 µM (≈ 7.99 µg/mL) | – | 113 µM (≈ 32 µg/mL) | – | – | – | – | –
O=C(Nc1ncc([N+](=O)[O-])s1)c1ccc(-c2cccc(C(F)(F)F)c2)o1 [Analogue 68, N-(5-Nitrothiazol-2-yl)-5-(3-(trifluoromethyl)phenyl)furan-2-carboxamide] | 1.1 µM (≈ 0.422 µg/mL) | 8.5 µM (≈ 3.26 µg/mL) | – | – | > 41.7 µM | 5.7 µM (≈ 2.18 µg/mL) | – | 11.4 µM (≈ 4.37 µg/mL) | – | – | – | – | –
O=C(Nc1ncc([N+](=O)[O-])s1)c1ccsc1 [Analogue 74, N-(5-Nitrothiazol-2-yl)thiophene-3-carboxamide] | 0.7 µM (≈ 0.179 µg/mL) | 5.9 µM (≈ 1.51 µg/mL) | 2.9 µM (≈ 0.74 µg/mL) | 58.5 ± 3.5 ^b % | > 62.7 µM | 15.7 µM (≈ 4.01 µg/mL) | – | 23.5 µM (≈ 6 µg/mL) | – | – | – | – | –
O=C(Nc1ncc([N+](=O)[O-])s1)c1cccs1 [Analogue 76, N-(5-Nitrothiazol-2-yl)thiophene-2-carboxamide] | – | – | 1.5 µM (≈ 0.383 µg/mL) | 56 ± 6 ^b % | > 62.7 µM | 31.3 µM (≈ 7.99 µg/mL) | – | – | – | – | – | – | –
O=C(Nc1ncc([N+](=O)[O-])s1)c1cc2ccccc2s1 [Analogue 84, N-(5-Nitrothiazol-2-yl)benzo[b]thiophene-2-carboxamide] | 2.5 µM (≈ 0.763 µg/mL) | 9.8 µM (≈ 2.99 µg/mL) | – | – | > 52.6 µM | 13.1 µM (≈ 4 µg/mL) | – | 6.6 µM (≈ 2.02 µg/mL) | – | – | – | – | –
O=C(Nc1ncc([N+](=O)[O-])s1)c1sc2ccccc2c1Cl [Analogue 85, 3-Chloro-N-(5-nitrothiazol-2-yl)benzo[b]thiophene-2-carboxamide] | – | – | – | – | > 47.1 µM | – | – | – | – | – | – | – | –
O=C(Nc1ncc([N+](=O)[O-])s1)c1sc2cc(F)ccc2c1Cl [Analogue 86, 3-Chloro-6-fluoro-N-(5-nitrothiazol-2-yl)benzo[b]thiophene-2-carboxamide] | 1 µM (≈ 0.358 µg/mL) | 5.6 µM (≈ 2 µg/mL) | – | – | 33.5 µM | 5.6 µM (≈ 2 µg/mL) | – | 2.1 µM (≈ 0.751 µg/mL) | – | – | – | – | –
CC(=O)Oc1ccccc1C(=O)Nc1ncc([N+](=O)[O-])s1 [Nitazoxanide, reference compound] | 13 µM (≈ 3.99 µg/mL) | 39.1 µM (≈ 12 µg/mL) | 1.2 µM (≈ 0.369 µg/mL) | – | > 52.1 µM | 52.1 µM (≈ 16 µg/mL) | – | 39.1 µM (≈ 12 µg/mL) | – | 54 ± 7% | [c] For PFOR inhibition assays, drug concentration was fixed at 40 μM which bench marks NTZ at ~50% inhibition. | > 104 µM | > 32 µg/mL

From paper PMC3089805 (Chemmedchem, 2010)
